# Measurements from US8921424B2, “Histone deacetylase inhibitors, process for preparation and uses thereof” (Zhejiang Hisun Pharmaceutical Co. Ltd., priority 2007, dated 2014).
# Where two headings read alike, the source gives them in different places.
# Key:
# HCT116 = experiment: Cell-based proliferation assay (SRB), HCT116; conditions: Homo sapiens
# Protocol: (§1) Cell-Based Proliferation Assay for Determination of GI50 Values
# (§2) A rapid multiwell plate assay using Sulforhodamine B (SRB) protein stain was adopted to evaluate the growth inhibitory effects of the compounds of the present invention. The screening panel of cancer cell lines includes Colo205 and HCT116 colon cancer cells, MDA-MB231 and MDA-MB435 chest cancer cells, A549 lung cancer cells, and Chinese hamster ovary cell line CHO, which were obtained from ATCC.
# (§3) The cell line Colo205 is grown in RPMI 1640 medium containing 2 mM L-glutamine, 5% fetal bovine serum, and 1.0 mM sodium pyruvic acid. Cell lines A549 and MDA-MB231 are grown in RPMI 1640 medium containing 2 mM L-glutamine and 5% fetal bovine serum. The cell line MDA-MB435 is grown in DMEM medium containing 2 mM L-glutamine and 5% fetal bovine serum. The cell lines HCT 116 is grown in IMEM medium containing 2 mM L-glutamine and 5% fetal bovine serum. The CHO cell line, used as a normal control on toxicity, is grown in a special medium for cell line. For a typical screening experiment, A549 and Colo205 cells are inoculated into 96-well microtiter plates, with 100 μL per well, and 2000 and 5000 cells per well respectively for either cell line. MDA-MB435, HCT116, MDA-MB231 and CHO cells are also inoculated into 96-well microtiter plates, with 6000 cells per well. After cell inoculation, the microtiter plates are incubated at 37° C., 5% CO2, and 100% relative humidity for 24 hr in order to make cells adhere to well wall.
# (§4) After 24 h incubation or time zero for drug addition, with each cell line 50 μl of cold 50% (w/v) TCA is added to wells used for control to fix cells in situ. Also at time zero, cells in other wells are treated with 100 μl of compound of different concentrations for 24 hr, 48 hr, and 72 hr respectively, with varying final compound concentration (0.1 μM, 1 μM, 5 μM 10 μM). For each treatment duration at each compound concentration, there are triplicate wells, as well as an array of control wells including a blank control well (cell culture medium only, no cells), a no-compound control well (adding same volume of cell culture medium but no compound), a positive control well (treated with Suberoylanilide hydroxamic acid (SAHA)), and normal cell well control (CHO cells). Following the addition of compounds, cell plates are incubated for 24 h, 48 h or 72 h per treatment group at 37° C., 5% CO2, and 100% relative humidity. The Treatment is then terminated by addition of cold TCA and incubation of 1 hr at 4° C. The supernatant is discarded, and all wells are washed five times with de-ioned water and air dried. Then each well is added with 100 μl sulforhodamine B (SRB) solution (0.4% (w/v) made in 1% acetic acid) and cell plates are incubated for 20-30 minutes at room temperature. After staining, unbound dye is removed by washing five times with 1% acetic acid and the plates are air dried. Bound stain is subsequently solubilized with 10 mM (200 μL) Tris base with the help of 5 min platform vibration or pipetting up and down, and the absorbance is read on an automated plate reader (M5 detection system, MD Group Ltd.) at a wavelength of 565 nm (calibrated zero reading of blank control at wavelength of 690 nm). The analytical software, XL-fit has been used to generate GI50 from a series of data thus obtained.
# HL-60 = experiment: Cell-based proliferation assay (SRB), HL-60; conditions: Homo sapiens
# HDAC6 = HDAC6 (Homo sapiens (Human), UniProt Q9UBN7); experiment: In vitro HDACi assay, HDAC6; assay type: biochemical
# Chain of HDAC6 (Q9UBN7 whole entry, species assumed): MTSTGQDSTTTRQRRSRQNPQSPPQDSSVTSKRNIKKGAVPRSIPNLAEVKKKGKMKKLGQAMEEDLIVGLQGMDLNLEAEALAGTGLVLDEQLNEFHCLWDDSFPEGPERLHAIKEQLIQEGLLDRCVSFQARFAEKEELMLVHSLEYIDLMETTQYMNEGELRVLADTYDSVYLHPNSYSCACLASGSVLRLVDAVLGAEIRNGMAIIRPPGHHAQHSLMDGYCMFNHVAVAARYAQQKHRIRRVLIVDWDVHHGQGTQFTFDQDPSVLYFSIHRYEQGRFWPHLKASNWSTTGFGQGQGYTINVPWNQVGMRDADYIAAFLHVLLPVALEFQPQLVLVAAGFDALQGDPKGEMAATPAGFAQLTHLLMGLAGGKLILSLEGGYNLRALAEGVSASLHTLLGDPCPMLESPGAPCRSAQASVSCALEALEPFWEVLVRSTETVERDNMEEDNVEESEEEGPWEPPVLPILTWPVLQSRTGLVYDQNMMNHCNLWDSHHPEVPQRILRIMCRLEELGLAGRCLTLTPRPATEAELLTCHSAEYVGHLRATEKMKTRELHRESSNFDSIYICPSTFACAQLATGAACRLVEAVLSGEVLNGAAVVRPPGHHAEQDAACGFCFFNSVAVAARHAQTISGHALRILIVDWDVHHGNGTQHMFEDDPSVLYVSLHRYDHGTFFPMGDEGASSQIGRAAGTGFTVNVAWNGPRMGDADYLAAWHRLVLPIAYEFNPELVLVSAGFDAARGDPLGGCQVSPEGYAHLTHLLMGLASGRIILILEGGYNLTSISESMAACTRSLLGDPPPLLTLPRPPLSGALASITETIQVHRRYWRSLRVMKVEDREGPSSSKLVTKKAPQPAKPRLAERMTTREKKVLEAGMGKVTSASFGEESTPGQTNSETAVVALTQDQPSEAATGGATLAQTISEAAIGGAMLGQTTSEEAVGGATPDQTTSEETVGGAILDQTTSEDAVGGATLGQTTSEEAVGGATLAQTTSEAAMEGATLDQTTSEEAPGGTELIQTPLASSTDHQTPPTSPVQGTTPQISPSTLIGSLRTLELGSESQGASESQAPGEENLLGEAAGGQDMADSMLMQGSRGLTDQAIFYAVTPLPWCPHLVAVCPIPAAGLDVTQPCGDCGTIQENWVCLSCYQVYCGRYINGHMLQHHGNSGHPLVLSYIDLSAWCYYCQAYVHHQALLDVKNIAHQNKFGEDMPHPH
# Protocol: (§5) In Vitro HDACi Assay for Determination of IC50 Values
# (§6) The assay has been carried out in white 96 well formats according to the BIOMOL's method. […] The reaction mixture was incubated at room temperature for 2 hours. Flur de lys Developer was added and the reaction was incubated for 10 min. Briefly, deacetylation of the substrate sensitizes to the developer, which then generates a fluorophore. The fluorophore is excited with 360 nm light and the emitted light (460 nm) is detected on a fluorometric plate reader (Molecular Device Ultra Microplate detection system, MD Group Ltd).
# (§7) The analytical software, Prism 4.0 (GraphPad Software Inc) has been used to generate IC50 from a series of data.
# HDACs = experiment: In vitro HDACi assay (BIOMOL fluorescent-based HDAC activity assay); assay type: biochemical
# Protocol: as §5, §6, §7
# [1] = Microsomal stability and clearance; assay type: in vitro ADME, human, mouse; conditions: microsomal stability; Table 4
# Protocol: Measure of Microsomal Stability and Clearance with Compounds of this Invention
# Verapamil (positive control) and compound solution, both at 10 mM, are diluted 200 fold. There are six reaction time points in the experiment (0 min, 5 min, 15 min, 30 min, 45 min, and 60 min), and triplicate samples are used for each data point. There are controls for time zero and negative drug effect (negative control containing no incubation buffer or enzyme). For each compound or Verapamil sample, there are also samples treated with compound or Verapamil at concentrations of no positive effect (at 5 μM and 2.5 μM, respectively). Diluted positive control (Verapamil) and compound solution are mixed with pre-heated (37° C.) incubation buffer (100 mM potassium phosphate buffer, NADPH regeneration system solution B, NAPDH regeneration system solution A, HLM/MLM in Milli-Q ultrapure water), and incubated at 37° C. for 10 min. 100 μL of stop solution mixture is (containing 80% acetonitrile, and 20% DMSO, both of HPLC grade) is dispensed into wells of separate sampling plates into each well. At each reaction time point (0 min, 5 min, 15 min, 30 min, 45 min, and 60 min) 50 μL of reaction solution is taken from wells in the incubation plate and transferred to its corresponding well in the sampling plate, and mixed by pipetting up and down with stop solution already added there. The sampling plates are then covered, placed on ice, and centrifuged at 2,000 rpm at 4° C. for 15 min. 100 μL supernatant is then taken from each well to LC/MS analysis (or stored at 4° C. in refrigerator until analysis).
# Data analysis: % remaining of compound is calculated by area of each time point with respect to time 0% remaining against time (min) curve is plotted using the first-phase exponential decay equation y=y0e(−kT) on the Prism 4.0. Results are shown in the format of TOP, K, t1/2 (min), R2 value and % remaining against time curve.
# HCT-116 = experiment: Xenograft model, HCT-116; assay type: in vivo, mouse; conditions: i.p.
# MDAMB231 = experiment: Cell-based proliferation assay (SRB), MDAMB231; conditions: Homo sapiens, MDA-MB-231; Table 4
# Protocol: as §1, §2, §3, §4
# [2] = Table 3, read-out: IC50 (nM) HDACs
# [3] = Table 4, read-out: HDAC enzyme inhibition activity IC50
Structure (SMILES),"GI50 (HCT116; HCT-116, Table 3) [µM]","GI50 (HCT116; HCT-116, Table 4) [µM]","GI50 (HL-60; HL-60, Table 3) [µM]","GI50 (HL-60; HL-60, Table 4) [µM]","IC50 (HDAC6; Table 3, read-out: IC50 (nM) HDAC6) [nM]",IC50 (HDACs; [2]) [nM],IC50 (HDACs; [3]) [nM],half-life [1] [min],"T/C(%) HCT-116 (HCT-116; 300 mg/kg, 14 days)",GI50 (MDAMB231) [µM],"T/C(%) HCT-116 (HCT-116; 80 mg/kg, 15 days)",IC50 (HDAC6) [nM],"T/C(%) HCT-116 (HCT-116; 30 mg/kg, 14 days)"
"CCCCCNc1cc(/C=C/C(=O)NO)ccc1SCCN(CC)CC [Example 2, 3-(4-(2-(diethylamino)ethylthio)-3-(pentylamino)phenyl)-N-hydroxy-acrylamide]",3.99,3.99,3.51,3.51,578,21,21000,108,"31% (300,14)",3.5,–,–,–
"O=C(CCCCCCC(=O)Nc1ccccc1)NO [SAHA, suberoylanilide hydroxamic acid, reference compound]",1.52,–,2,–,–,–,–,96,–,5.1,">60% (80,15)",–,–
"CCCCc1nc2cc(/C=C/C(=O)NO)ccc2n1CCN(CC)CC [SB939, reference compound]",1.35,–,0.645,0.645,–,18,18000,114,–,2.35,–,488,"30% (30,14)"
